Data as given in ChEMBL document CHEMBL1201862, “PubChem BioAssay data set” (2004).
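Cells were grown in 96-well plates and exposed to each compound for 48 hours at five concentrations; endpoints were interpolated linearly between bracketing concentrations, or set to the highest concentration if not reached. GI50 = concentration required for 50% inhibition of growth.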 Calls of active or inactive are those of the source. No stated cut-off is given here; in the data, active = GI50 up to about 1.1 µM and inactive = higher.

Legend:
Assay in all cases: DTP human tumour cell line panel, 48 h
[1] = tested on: 786-0
[2] = tested on: CCRF-CEM
[3] = tested on: EKVX
[4] = tested on: HCC 2998
[5] = tested on: HOP-62
[6] = tested on: IGROV-1
[7] = tested on: LOX IMVI
[8] = tested on: M19-MEL
[9] = tested on: MDA-MB-435
[10] = tested on: MDA-N
[11] = tested on: NCI-H23
[12] = tested on: OVCAR-8
[13] = tested on: SF-295
[14] = tested on: SK-MEL-5
[15] = tested on: SNB-19
[16] = tested on: SNB-75
[17] = tested on: SR
[18] = tested on: TK-10
[19] = tested on: U-251
[20] = tested on: UACC-257

With `COc1ccc(CCc2cc(OC)c(OC)c(OC)c2)cc1` the GI50 [1] was 150 nM (active), the GI50 [2] was 20.4 nM (active) and the GI50 [3] was 1180 nM (inactive). The GI50 [4] was 56.8 nM (active), the GI50 [5] was 19.6 nM (active) and the GI50 [6] was 61.2 nM (active). For the same molecule, the GI50 [7] was 37.2 nM (active), the GI50 [8] was < 22.6 nM (active) and the GI50 [9] was < 10 nM (active). For the same molecule, the GI50 [10] was < 10 nM (active), the GI50 [11] was 74.3 nM (active) and the GI50 [12] was 100 nM (active). For the same molecule, the GI50 [13] was 17.8 nM (active), the GI50 [14] was 21.2 nM (active) and the GI50 [15] was 111 nM (active). The GI50 [16] was 39.5 nM (active), the GI50 [17] was < 10 nM (active) and the GI50 [18] was 2640 nM (inactive). For the same molecule, the GI50 [19] was 24.7 nM (active) and the GI50 [20] was 544 nM (active).

With `COc1cc(C(=O)c2cocc2C(=O)c2ccc3c(c2)OCO3)cc(OC)c1OC` the GI50 [1] was 570 nM (active), the GI50 [2] was 444 nM (active) and the GI50 [3] was 6640 nM (inactive). For the same molecule, the GI50 [4] was 3720 nM (inactive), the GI50 [5] was 1000 nM (active) and the GI50 [6] was 1500 nM (inactive). The GI50 [7] was 483 nM (active), the GI50 [8] was 2960 nM (inactive) and the GI50 [9] was 91.6 nM (active). The GI50 [10] was 46.8 nM (active), the GI50 [11] was 826 nM (active) and the GI50 [12] was 1350 nM (inactive). For the same molecule, the GI50 [13] was 351 nM (active), the GI50 [14] was 232 nM (active) and the GI50 [15] was 933 nM (active). For the same molecule, the GI50 [16] was 336 nM (active), the GI50 [17] was 611 nM (active) and the GI50 [18] was 3180 nM (inactive). For the same molecule, the GI50 [19] was 537 nM (active) and the GI50 [20] was 531 nM (active).

For `Cc1ccc(S(=O)(=O)O/N=C2\CCC\C2=C/c2ccccc2)cc1`, the GI50 [1] was 25400 nM (inactive), the GI50 [2] was 58600 nM (inactive) and the GI50 [3] was 19600 nM (inactive). For the same molecule, the GI50 [4] was 17700 nM (inactive), the GI50 [5] was 36600 nM (inactive) and the GI50 [6] was 26200 nM (inactive). For the same molecule, the GI50 [7] was 25900 nM (inactive), the GI50 [8] was 20100 nM (inactive) and the GI50 [11] was 19400 nM (inactive). The GI50 [12] was 29000 nM (inactive), the GI50 [13] was 22800 nM (inactive) and the GI50 [14] was 14800 nM (inactive). For the same molecule, the GI50 [15] was 30500 nM (inactive), the GI50 [16] was 20200 nM (inactive) and the GI50 [17] was 16400 nM (inactive). For the same molecule, the GI50 [18] was 16600 nM (inactive), the GI50 [19] was 31600 nM (inactive) and the GI50 [20] was 17100 nM (inactive).
